Experiment: xn = mol fraction of the nth substance listed
Conditions: 101 kPa

CC[N+](CC)(CC)CC.[Cl-] + CC(=O)CCC(=O)O
electrical conductivity (293.15 K, x1 = 0.25): 0.075 S/m | viscosity (293.15 K, x1 = 0.25): 130.1 mPa·s | electrical conductivity (298.15 K, x1 = 0.25): 0.105 S/m | electrical conductivity (303.15 K, x1 = 0.25): 0.138 S/m | viscosity (303.15 K, x1 = 0.25): 69.8 mPa·s | electrical conductivity (308.15 K, x1 = 0.25): 0.172 S/m | electrical conductivity (313.15 K, x1 = 0.25): 0.215 S/m | viscosity (313.15 K, x1 = 0.25): 39.1 mPa·s | electrical conductivity (318.15 K, x1 = 0.25): 0.265 S/m | electrical conductivity (323.15 K, x1 = 0.25): 0.318 S/m | viscosity (323.15 K, x1 = 0.25): 27.1 mPa·s | electrical conductivity (328.15 K, x1 = 0.25): 0.373 S/m | electrical conductivity (333.15 K, x1 = 0.25): 0.453 S/m | viscosity (333.15 K, x1 = 0.25): 18.71 mPa·s | electrical conductivity (338.15 K, x1 = 0.25): 0.524 S/m | electrical conductivity (343.15 K, x1 = 0.25): 0.587 S/m

CC(=O)CCC(=O)O + CCCC[N+](CCCC)(CCCC)CCCC.[Cl-]
electrical conductivity (293.15 K, x1 = 0.75): 0.035 S/m | viscosity (293.15 K, x1 = 0.75): 121.7 mPa·s | electrical conductivity (298.15 K, x1 = 0.75): 0.045 S/m | electrical conductivity (303.15 K, x1 = 0.75): 0.06 S/m | viscosity (303.15 K, x1 = 0.75): 65.6 mPa·s | electrical conductivity (308.15 K, x1 = 0.75): 0.072 S/m | electrical conductivity (313.15 K, x1 = 0.75): 0.089 S/m | viscosity (313.15 K, x1 = 0.75): 36.7 mPa·s | electrical conductivity (318.15 K, x1 = 0.75): 0.113 S/m | electrical conductivity (323.15 K, x1 = 0.75): 0.129 S/m | viscosity (323.15 K, x1 = 0.75): 25.5 mPa·s | electrical conductivity (328.15 K, x1 = 0.75): 0.151 S/m | electrical conductivity (338.15 K, x1 = 0.75): 0.213 S/m

Source: a compilation of properties of binary mixtures (doi:10.1016/j.molliq.2016.07.039)
